# US20130060020A1, “Compounds useful for treating neurodegenerative disorders” (Satori Pharmaceuticals, Inc., priority 2011, published 2013)
# Read-outs that look alike come from different tables or passages of the source.
# Experiments:
# Aβ 42 = experiment: % 42 lowering and 40/42 selectivity after dosing in mg/kg (Table 5); type: in vivo; conditions: 100 mg/kg
# Aβ-38 = Aβ-38 MSD 3-plex ELISA, conditioned media of 2B7 cells; type: cell-based; conditions: Homo sapiens, 5 hours treatment, read-out: Aβ 38 IC50
# Experimental: (§1) Assays were conducted to determine the ability of a Compound of Formula I to modulate […], and Aβ-38.
# (§2) Plates with capture antibodies were blocked for 1-2 hours at room temperature with 150 μL of the manufactures blocking reagent.
# (§3) Cultured 2B7 cells in 96 well plate with 250 μL of media per well until confluent;
# (§4) Prepared serial dilutions of compounds in DMSO at 100× the final desired concentration;
# (§5) Washed wells with 2B7 cells 1× with 250 μL of media;
# (§6) Diluted DMSO stocks 1:100 into media: • Added 250 μL of media containing compounds (1% DMSO) to wells with 2B7 cells for 5 hours at 37° C.
# (§7) ELISA Sample Prep: • Diluted conditioned media: 1 part media with 1% DMSO and 1 part blocking buffer; • 150 μL of the 250 μL of conditioned media were used.
# (§8) Prepared per manufacturer's protocol (see above). • Seven point standard curve samples were prepared that contained Aβ-42, Aβ-40, and Aβ-38. The highest concentration of Aβ-42 and Aβ-38 was 3,000 pg/mL and the highest concentration of Aβ-40 was 10,000 pg/mL. Subsequent serial dilutions were 1:3 and the final composition of each sample was 1 part blocking buffer and 1 part cell medium containing 1% DMSO.
# (§9) Overnight Sample Incubation: • Blocked plates are washed 5× with MSD wash buffer with a plate washer; • […] and blocker G reagent in MSD blocking solution was added; • 25 μL of samples (1 part conditioned media containing 1% DMSO and 1 part MSD blocking buffer) were then added; • Plates were incubated overnight at 4 degrees C. or 2 hours at room temperature.
# (§10) Final Wash and Readout: • Washed wells 5× with MSD wash buffer; • Added 150 μL 2×MSD read buffer; • Read with MSD imager.
# (§11) Aβ peptide levels for each peptide were calculated from the standard curve using the MSD software provided with the MSD 2400 Imager. Percent vehicle values for each compound dosage were then calculated and fit to a 4 parameter curve generating IC50 values.
# (§12) Conditioned media from 2B7 cells (Mayo) was collected after 5 hours of treatment and diluted with 1 volume of Meso Scale Discovery (MSD, Gaithersburg Md.) blocking buffer (1% BSA in MSD wash buffer). For total Aβ measurements, standard-bind, multi-array single spot 96 well MSD ELISA plates were coated with unlabeled 4G8 capture antibody (Covance, Princeton, N.J.) overnight at 4° C. and then blocked with 5% BSA in MSD wash buffer for 1 hour at room temperature with orbital shaking Diluted 2B7 conditioned media were added to the blocked in-house total Aβ MSD plates with SULFO-TAG 6E10 antibody (MSD). For Aβ38, 40 and 42 measurements, diluted 2B7 conditioned media were added to blocked human (6E10) Aβ 3-Plex plates (MSD). Total Aβ and Aβ 3-Plex plates were incubated for 2 hours at room temperature with orbital shaking followed by washing and reading according to the manufacturer's instructions (SECTOR® Imager 2400, MSD). Aβ concentrations were converted to percent vehicle values and used to construct dose response curves which were fitted to […] using GraphPad Prism version 5.00 for Windows, GraphPad Software, San Diego Calif. USA.
# Aβ-42 = Aβ-42 MSD 3-plex ELISA, conditioned media of 2B7 cells; type: cell-based; conditions: Homo sapiens, 5 hours treatment
# Experimental: as §1, §2, §3, §4, §5, §6, §7, §8, §9, §10, §11, §12
# Aβ-40 = Aβ-40 MSD 3-plex ELISA, conditioned media of 2B7 cells; type: cell-based; conditions: Homo sapiens, 5 hours treatment
# Experimental: as §1, §2, §3, §4, §5, §6, §7, §8, §9, §10, §11, §12
# Notch processing (NICD) = experiment: Notch assay: NICD appearance in SUP-T1 cells (western blot); type: cell-based; conditions: 18 hours; for Notch % inhib: Notch inhib conc class D (1001-5000 nM)
# Experimental: The methods for this assay are broken up into two parts. 1) Growing, dosing and lysing cells 2) Measuring Notch processing (NICD appearance) and data manipulation. Cell viability is also described (CTG). SUP-T1 cells were cultured in T75 flasks in RPMI media (Mediatech 10-041-CV) supplemented with 10% FBS and penicillin/streptomycin at 37° C. in a 5% CO2 atmosphere. One hour prior to drug treatment six well plates were seeded with 1.5 mL of media with cells at a density of 1.0×10^6 cells/mL. The DMSO serial dilutions were diluted 100 fold directly into the media with the cells and incubated for 18 hours at 37° C. After treatment 100 μL of treated cells were assayed for viability with the Promega Cell Titer Glo assay system. […] Lysates were spun at 5,000 RPM for 5 minutes and supernatants were collected and analyzed for NICD levels. […] To account for loading discrepancies each NICD band was normalized to the alpha tubulin band in that well. These values were then normalized to vehicle levels and used to plot a dose response curve. IC50 values were obtained from the dose response curves using a four parameter fit method available within Prism's GraphPad graphing suite. Luminescent data from Promega's Cell Titre Glo assay system were normalized to vehicle controls and plotted with NICD levels.
# [1] = inflection of dose response curve, read-out: Aβ 42 DR IC50 Inflection
# [2] = inflection of dose response curve, read-out: Aβ 40 DR IC50 Inflection
Compound,%42 lowering 10 hr (Aβ 42),%42 lowering 24 hr (Aβ 42; 24 hr),IC50 (Aβ-38),40/42 selective 10 hr (Aβ 42),IC50 (Aβ-42; [1]),IC50 (Aβ-42; read-out: Aβ 42 IC50),IC50 (Aβ-40; read-out: Aβ 40 IC50),"IC50 (Notch processing (NICD); Homo sapiens, NICD levels)",IC50 (Aβ-40; [2]),"inhibition at 5 µM (Notch processing (NICD); Homo sapiens, Notch inhib conc class E (>5000 nM))",Notch % inhib (Notch processing (NICD))
CCO[C@@H]([C@H]1C[C@@H](C)[C@H]2[C@H](O1)[C@H](O)[C@@]1(C)[C@@H]3CC[C@H]4C(C)(C)[C@@H](O[C@H]5CN(CC6CN(CC(C)(C)O)C6)CCO5)CC[C@@]45C[C@@]35CC[C@]21C)C(C)(C)O [Compound I-24],A^a (% 42 lowering of under 15%),C^a (% 42 lowering of 21-25%),,,,,,,,,
CCO[C@@H]([C@H]1C[C@@H](C)[C@H]2[C@H](O1)[C@H](O)[C@@]1(C)[C@@H]3CC[C@H]4C(C)(C)[C@@H](O[C@H]5CN(C6CCN(CCOC)CC6)CCO5)CC[C@@]45C[C@@]35CC[C@]21C)C(C)(C)O [Compound I-28],A^a (% 42 lowering of under 15%),,501 to 1000 nM,F^a (10-15 fold selectivity),100 to 500 nM,100 to 500 nM,,,,,
CCO[C@@H]([C@H]1C[C@@H](C)[C@H]2[C@H](O1)[C@H](O)[C@@]1(C)[C@@H]3CC[C@H]4C(C)(C)[C@@H](O[C@H]5CN(C6CCN(C(C)C)CC6)CCO5)CC[C@@]45C[C@@]35CC[C@]21C)C(C)(C)O [Compound I-30],A^a (% 42 lowering of under 15%),,100 to 500 nM,G^a (16-20 fold selectivity),< 100 nM,< 100 nM,1000 to 5000 nM,,,,
CCO[C@@H]([C@H]1C[C@@H](C)[C@H]2[C@H](O1)[C@H](O)[C@@]1(C)[C@@H]3CC[C@H]4C(C)(C)[C@@H](O[C@H]5CN(C6CCN(C7COC7)CC6)CCO5)CC[C@@]45C[C@@]35CC[C@]21C)C(C)(C)O [Compound I-35],,,501 to 1000 nM,,100 to 500 nM,100 to 500 nM,1000 to 5000 nM,> 5000 nM,1000 to 5000 nM,,
CCO[C@@H]([C@H]1C[C@@H](C)[C@H]2[C@H](O1)[C@H](O)[C@@]1(C)[C@@H]3CC[C@H]4C(C)(C)[C@@H](O[C@H]5CN(CCN6CCC6)CCO5)CC[C@@]45C[C@@]35CC[C@]21C)C(C)(C)O [Compound I-57],,,100 to 500 nM,,< 100 nM,100 to 500 nM,1000 to 5000 nM,,1000 to 5000 nM,0 to 25%,
CCO[C@@H]([C@H]1C[C@@H](C)[C@H]2[C@H](O1)[C@H](O)[C@@]1(C)[C@@H]3CC[C@H]4C(C)(C)[C@@H](O[C@H]5CN(C6CN(C(CO)CO)C6)CCO5)CC[C@@]45C[C@@]35CC[C@]21C)C(C)(C)O [Compound I-74],,,100 to 500 nM,,100 to 500 nM,100 to 500 nM,1000 to 5000 nM,,,,
CCO[C@@H]([C@H]1C[C@@H](C)[C@H]2[C@H](O1)[C@H](O)[C@@]1(C)[C@@H]3CC[C@H]4C(C)(C)[C@@H](O[C@H]5CN([C@@H](C)CN6CCC6)CCO5)CC[C@@]45C[C@@]35CC[C@]21C)C(C)(C)O [Compound I-76],,,,,1000 to 5000 nM,,,,,,B (B is a range from 26-50%)
CCO[C@@H]([C@H]1C[C@@H](C)[C@H]2[C@H](O1)[C@H](O)[C@@]1(C)[C@@H]3CC[C@H]4C(C)(C)[C@@H](O[C@H]5CN([C@H](C)CN6CCC6)CCO5)CC[C@@]45C[C@@]35CC[C@]21C)C(C)(C)O [Compound I-77],,,,,,,,,,,A (A is range from 0-25%)
